The values below come from ChEMBL document CHEMBL3045931, “QSAR studies of antituberculosis drug using three-dimensional structure descriptors” (Med Chem Res, 2013).

The test system of the experiment is Mycobacterium tuberculosis. Description: Antitubercular activity against Mycobacterium tuberculosis assessed as growth inhibition […]. It counts as functional, organism-based. To be noted: read-out: log(1/IC50) (converted).
Consider `Cc1ccc(C(=O)N2CCN(c3ccccc3)CC2)cc1`, for which the IC50 was 16.6 µM.

Consider `Cc1cccc(C(=O)N2CCN(c3cccc(Cl)c3)CC2)c1`, for which the IC50 was 9.33 µM.

`O=C(c1ccc(F)cc1)N1CCN(c2cccc(Cl)c2)CC1`: the IC50 was 9.77 µM.

For the compound `Cc1ccc(C(=O)N2CCN(c3cccc(C(F)(F)F)c3)CC2)cc1C`, the IC50 was 1.86 µM.

Turning to `CC(C)(C)c1ccc(C(=O)N2CCN(c3cccc(Cl)c3)CC2)cc1`, the IC50 was 100 µM.

Consider `CC(C)(C)c1ccc(C(=O)N2CCN(c3cccc(C(F)(F)F)c3)CC2)cc1`, for which the IC50 is 100 µM.

Take `O=C(c1cccc(Cl)c1)N1CCN(c2cccc(Cl)c2)CC1`: the IC50 is 6.76 µM.

`O=C(c1ccc(Cl)c(Cl)c1)N1CCN(c2ccccc2)CC1`: the IC50 was 17.8 µM.

As for `O=C(c1ccccc1)N1CCN(Cc2ccccc2)CC1`, the IC50 is 31.6 µM.

On to `O=C(c1cccc(Cl)c1)N1CCC(Cc2ccccc2)CC1`, for which the IC50 was 7.76 µM.

Regarding `Cc1ccc(C(=O)N2CCC(Cc3ccccc3)CC2)cc1`, the IC50 is 5.13 µM.

`O=C(c1ccccc1)N1CCN(c2ccccc2)CC1`: the IC50 is 38.9 µM.

For the compound `O=C(c1ccc2[nH]ccc2c1)N1CCN(C(c2ccc(F)cc2)c2ccc(F)cc2)CC1`, the IC50 is 1.05 µM.

Consider `Cc1ccc(C(=O)N2CCN(C(c3ccc(F)cc3)c3ccc(F)cc3)CC2)cc1`, for which the IC50 is 1.91 µM.

Take `O=C(c1ccccc1)N1CCN(C(c2ccc(F)cc2)c2ccc(F)cc2)CC1`: the IC50 is 2.04 µM.

For `CC(C)c1ccc(C(=O)N2CCN(c3cccc(Cl)c3)CC2)cc1`, the IC50 was 100 µM.

On to `O=C(c1ccccc1F)N1CCN(c2cccc(Cl)c2)CC1`, for which the IC50 is 13.8 µM.

Regarding `Cc1ccc(C(=O)N2CCN(c3cccc(C(F)(F)F)c3)CC2)cc1`, the IC50 was 6.31 µM.

`Cc1cccc(C(=O)N2CCN(c3ccc([N+](=O)[O-])cc3)CC2)c1`: the IC50 is 15.5 µM.

In the case of `Cc1ccc(N2CCN(C(=O)c3ccc(C(C)(C)C)cc3)CC2)cc1Cl`, the IC50 was 100 µM.

On to `O=C(c1ccc(Cl)c(Cl)c1)N1CCN(c2cccc(Cl)c2)CC1`, for which the IC50 was 6.03 µM.

In the case of `Cc1ccc(C(=O)N2CCN(c3cccc(Cl)c3)CC2)cc1`, the IC50 is 3.09 µM.

As for `O=C(c1ccccc1F)N1CCC(Cc2ccccc2)CC1`, the IC50 is 14.1 µM.
